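How tested: cells in 96-well plates exposed to compound for 48 hours at five concentrations. At the GI50, growth is halved.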 Calls of active or inactive are those of the source. Rule as the data show it: active = GI50 up to about 1.1 µM and inactive = higher.
Tests used:
Experiment in all cases: growth of human tumour cells (NCI), 48 h
NCI/ADR-RES = tested on: NCI/ADR-RES
A498 = tested on: A498
SN12C = tested on: SN12C
NCI-H23 = tested on: NCI-H23
OVCAR-8 = tested on: OVCAR-8
CAKI-1 = tested on: CAKI-1
SF-268 = tested on: SF-268
HOP-62 = tested on: HOP-62
OVCAR-4 = tested on: OVCAR-4
MOLT-4 = tested on: MOLT-4
EKVX = tested on: EKVX
HT-29 = tested on: HT-29
M14 = tested on: M14
DU-145 = tested on: DU-145
OVCAR-5 = tested on: OVCAR-5
HCT-116 = tested on: HCT-116
Hs-578T = tested on: Hs-578T
KM12 = tested on: KM12
A549 = tested on: A549
T47D = tested on: T47D
OVCAR-3 = tested on: OVCAR-3
ACHN = tested on: ACHN
HCT-15 = tested on: HCT-15
SF-295 = tested on: SF-295
PC-3 = tested on: PC-3
SK-OV-3 = tested on: SK-OV-3
NCI-H522 = tested on: NCI-H522
MCF7 = tested on: MCF7
U-251 = tested on: U-251
MDA-N = tested on: MDA-N
K562 = tested on: K562
HCC 2998 = tested on: HCC 2998
MDA-MB-435 = tested on: MDA-MB-435
SK-MEL-5 = tested on: SK-MEL-5
CCRF-CEM = tested on: CCRF-CEM
UO-31 = tested on: UO-31
RXF 393 = tested on: RXF 393
SNB-75 = tested on: SNB-75
SNB-19 = tested on: SNB-19
NCI-H460 = tested on: NCI-H460
TK-10 = tested on: TK-10
SK-MEL-28 = tested on: SK-MEL-28
MDA-MB-231 = tested on: MDA-MB-231
COLO 205 = tested on: COLO 205
RPMI-8226 = tested on: RPMI-8226
NCI-H226 = tested on: NCI-H226
SW-620 = tested on: SW-620
UACC-62 = tested on: UACC-62
UACC-257 = tested on: UACC-257
HOP-92 = tested on: HOP-92
SR = tested on: SR
786-0 = tested on: 786-0
SK-MEL-2 = tested on: SK-MEL-2
LOX IMVI = tested on: LOX IMVI
SF-539 = tested on: SF-539
IGROV-1 = tested on: IGROV-1
Malme-3M = tested on: Malme-3M
HL-60 = tested on: HL-60

## C=CC(C)(C)C(=C)C(=O)N(C)c1ccccc1I
NCI/ADR-RES
  GI50: > 100 µM (inactive)
A498
  GI50: > 100 µM (inactive)
SN12C
  GI50: > 100 µM (inactive)
NCI-H23
  GI50: 84.1 µM (inactive)
OVCAR-8
  GI50: > 100 µM (inactive)
CAKI-1
  GI50: > 100 µM (inactive)
SF-268
  GI50: > 100 µM (inactive)
HOP-62
  GI50: > 100 µM (inactive)
OVCAR-4
  GI50: 48.3 µM (inactive)
MOLT-4
  GI50: 83.2 µM (inactive)
EKVX
  GI50: > 100 µM (inactive)
HT-29
  GI50: > 100 µM (inactive)
M14
  GI50: > 100 µM (inactive)
DU-145
  GI50: > 100 µM (inactive)
OVCAR-5
  GI50: > 100 µM (inactive)
HCT-116
  GI50: 84.9 µM (inactive)
Hs-578T
  GI50: 57.9 µM (inactive)
KM12
  GI50: > 100 µM (inactive)
A549
  GI50: > 100 µM (inactive)
T47D
  GI50: > 100 µM (inactive)
OVCAR-3
  GI50: > 100 µM (inactive)
ACHN
  GI50: > 100 µM (inactive)
HCT-15
  GI50: > 100 µM
SF-295
  GI50: > 100 µM (inactive)
PC-3
  GI50: > 100 µM (inactive)
SK-OV-3
  GI50: > 100 µM (inactive)
NCI-H522
  GI50: > 100 µM (inactive)
MCF7
  GI50: > 100 µM (inactive)
U-251
  GI50: > 100 µM (inactive)
MDA-N
  GI50: > 100 µM (inactive)
K562
  GI50: > 100 µM (inactive)
HCC 2998
  GI50: > 100 µM (inactive)
MDA-MB-435
  GI50: > 100 µM (inactive)
SK-MEL-5
  GI50: 72.8 µM (inactive)
CCRF-CEM
  GI50: > 100 µM (inactive)
UO-31
  GI50: > 100 µM (inactive)
RXF 393
  GI50: > 100 µM (inactive)
SNB-75
  GI50: > 100 µM (inactive)
SNB-19
  GI50: > 100 µM (inactive)
NCI-H460
  GI50: > 100 µM (inactive)
TK-10
  GI50: > 100 µM (inactive)
SK-MEL-28
  GI50: > 100 µM (inactive)
MDA-MB-231
  GI50: > 100 µM (inactive)
COLO 205
  GI50: > 100 µM (inactive)
RPMI-8226
  GI50: > 100 µM (inactive)
NCI-H226
  GI50: 95.7 µM (inactive)
SW-620
  GI50: > 100 µM (inactive)
UACC-62
  GI50: > 100 µM (inactive)
UACC-257
  GI50: > 100 µM (inactive)
HOP-92
  GI50: > 100 µM (inactive)
SR
  GI50: > 100 µM (inactive)
786-0
  GI50: > 100 µM (inactive)
SK-MEL-2
  GI50: > 100 µM (inactive)
LOX IMVI
  GI50: > 100 µM (inactive)

## COC(=O)c1cc(C)ccc1C1CN=NC12Cc1cccc(C)c1C2=O (configuration not stated)
NCI/ADR-RES
  GI50: 25.5 µM (inactive)
SF-539
  GI50: 51.6 µM (inactive)
A498
  GI50: 47.6 µM (inactive)
SN12C
  GI50: 43.9 µM (inactive)
NCI-H23
  GI50: 42.7 µM (inactive)
OVCAR-8
  GI50: 33.1 µM (inactive)
CAKI-1
  GI50: 43.3 µM (inactive)
SF-268
  GI50: 49.7 µM (inactive)
HOP-62
  GI50: 35.6 µM (inactive)
OVCAR-4
  GI50: 25.5 µM (inactive)
MOLT-4
  GI50: 18.7 µM (inactive)
EKVX
  GI50: 23 µM (inactive)
HT-29
  GI50: 36 µM (inactive)
M14
  GI50: 16.7 µM (inactive)
DU-145
  GI50: 42.5 µM (inactive)
OVCAR-5
  GI50: 17.9 µM (inactive)
HCT-116
  GI50: 23.8 µM (inactive)
Hs-578T
  GI50: 28.6 µM (inactive)
KM12
  GI50: 26.2 µM (inactive)
A549
  GI50: 31.7 µM (inactive)
T47D
  GI50: 12.3 µM (inactive)
OVCAR-3
  GI50: 36.1 µM (inactive)
ACHN
  GI50: 28.2 µM (inactive)
HCT-15
  GI50: 27.6 µM
SF-295
  GI50: 36.1 µM (inactive)
NCI-H522
  GI50: 21.3 µM (inactive)
MCF7
  GI50: 30.1 µM (inactive)
U-251
  GI50: 48.9 µM (inactive)
MDA-N
  GI50: 34.8 µM (inactive)
IGROV-1
  GI50: 37.7 µM (inactive)
K562
  GI50: 33.3 µM (inactive)
HCC 2998
  GI50: 37.9 µM (inactive)
MDA-MB-435
  GI50: 26.3 µM (inactive)
SK-MEL-5
  GI50: 18 µM (inactive)
CCRF-CEM
  GI50: 29.3 µM (inactive)
Malme-3M
  GI50: 24.2 µM (inactive)
UO-31
  GI50: 38.9 µM (inactive)
RXF 393
  GI50: 25 µM (inactive)
SNB-75
  GI50: 77.3 µM (inactive)
SNB-19
  GI50: 55.1 µM (inactive)
NCI-H460
  GI50: 26.2 µM (inactive)
TK-10
  GI50: 71.6 µM (inactive)
SK-MEL-28
  GI50: 27.3 µM (inactive)
MDA-MB-231
  GI50: 25.6 µM (inactive)
RPMI-8226
  GI50: 16.8 µM (inactive)
NCI-H226
  GI50: 33.1 µM (inactive)
SW-620
  GI50: 38.4 µM (inactive)
UACC-257
  GI50: 30.9 µM (inactive)
HOP-92
  GI50: 30.5 µM (inactive)
SR
  GI50: 26.2 µM (inactive)
786-0
  GI50: 56.6 µM (inactive)
HL-60
  GI50: 12.7 µM (inactive)
LOX IMVI
  GI50: 16.6 µM (inactive)

## CN(C)Cc1cc(C(=O)/C=C/c2c(Cl)cccc2Cl)cc(CN(C)C)c1O
NCI/ADR-RES
  GI50: 4.57 µM (inactive)
SF-539
  GI50: 14.5 µM (inactive)
A498
  GI50: 9.27 µM (inactive)
SN12C
  GI50: 5.82 µM (inactive)
NCI-H23
  GI50: 14.6 µM (inactive)
OVCAR-8
  GI50: 3.55 µM (inactive)
CAKI-1
  GI50: 2.88 µM (inactive)
SF-268
  GI50: 11.9 µM (inactive)
HOP-62
  GI50: 7.85 µM (inactive)
OVCAR-4
  GI50: 8.55 µM (inactive)
MOLT-4
  GI50: 4.19 µM (inactive)
EKVX
  GI50: 10.9 µM (inactive)
HT-29
  GI50: 3.07 µM (inactive)
M14
  GI50: 4.91 µM (inactive)
DU-145
  GI50: 8.2 µM (inactive)
OVCAR-5
  GI50: 18.2 µM (inactive)
HCT-116
  GI50: 6.04 µM (inactive)
Hs-578T
  GI50: 14 µM (inactive)
KM12
  GI50: 2.65 µM (inactive)
A549
  GI50: 11.5 µM (inactive)
T47D
  GI50: 16.4 µM (inactive)
OVCAR-3
  GI50: 5.7 µM (inactive)
ACHN
  GI50: 2.8 µM (inactive)
HCT-15
  GI50: 10.8 µM
SF-295
  GI50: 8.51 µM (inactive)
PC-3
  GI50: 5.64 µM (inactive)
NCI-H522
  GI50: 2.98 µM (inactive)
MCF7
  GI50: 3.71 µM (inactive)
U-251
  GI50: 11.4 µM (inactive)
MDA-N
  GI50: 3.67 µM (inactive)
IGROV-1
  GI50: 7.83 µM (inactive)
K562
  GI50: 3.01 µM (inactive)
HCC 2998
  GI50: 19 µM (inactive)
MDA-MB-435
  GI50: 9.2 µM (inactive)
SK-MEL-5
  GI50: 3.76 µM (inactive)
CCRF-CEM
  GI50: 3.74 µM (inactive)
Malme-3M
  GI50: 3.69 µM (inactive)
UO-31
  GI50: 2.79 µM (inactive)
RXF 393
  GI50: 5.7 µM (inactive)
SNB-75
  GI50: 3.34 µM (inactive)
SNB-19
  GI50: 14.8 µM (inactive)
NCI-H460
  GI50: 3.72 µM (inactive)
TK-10
  GI50: 14.4 µM (inactive)
SK-MEL-28
  GI50: 8.49 µM (inactive)
MDA-MB-231
  GI50: 4.61 µM (inactive)
COLO 205
  GI50: 2.96 µM (inactive)
RPMI-8226
  GI50: 4.78 µM (inactive)
NCI-H226
  GI50: 14.4 µM (inactive)
SW-620
  GI50: 4.12 µM (inactive)
UACC-257
  GI50: 4.46 µM (inactive)
HOP-92
  GI50: 3.05 µM (inactive)
SR
  GI50: 3.18 µM (inactive)
786-0
  GI50: 5.2 µM (inactive)
HL-60
  GI50: 2.07 µM (inactive)
LOX IMVI
  GI50: 1.77 µM (inactive)
